Results on 4 compounds are retold here after BindingDB's records for doi:10.1021/jm960012o (Allergan, 1996).

This assay can be described thus: Displacement of [3H]-clonidine from bovine imidazoline receptor I-1.

Broadly, the Ki is a measure of affinity in units of concentration, obtained from inhibition or displacement. Lower therefore signals tighter binding.

`NC[C@H](O)c1ccc(O)c(O)c1` [4-[(1R)-2-amino-1-hydroxyethyl]benzene-1,2-diol] yielded an inhibitory constant (Ki) of more than 100000 nM.
To `CC(C)C1C2CCC(C2)C1N` (centres undefined) [3-Isopropyl-bicyclo[2.2.1]hept-2-ylamine] belongs 42 nM; to `Clc1cccc(Cl)c1N=C1NCCN1` [2-(2,6-dichloroanilino)-2-imidazoline], 8.9 nM.
The figure for `COc1nc(C)nc(Cl)c1N=C1NCCN1` [(4-Chloro-6-methoxy-2-methyl-pyrimidin-5-yl)-imidazolidin-2-ylidene-amine] is 56 nM.
